For 15 molecules, IC50 results are on record in patent US20240376099A1, “COMPOUNDS AND COMPOSITIONS AS INHIBITORS OF ENDOSOMAL TOLL-LIKE RECEPTORS” (Novartis AG, priority 2016, published 2024).

As a reminder, the pIC50 is −log10 of the IC50, conventionally taken in molar units.

pIC50: −log10 of the molar value.

The assay addresses T1, TLR7 (Homo sapiens, UniProt Q9NYK1).
T1 construct: Fresh blood was collected from normal human donors; endogenous in cells; host or cells: human PBMCs from fresh donor blood
T1 sequence (Q9NYK1 27-1049): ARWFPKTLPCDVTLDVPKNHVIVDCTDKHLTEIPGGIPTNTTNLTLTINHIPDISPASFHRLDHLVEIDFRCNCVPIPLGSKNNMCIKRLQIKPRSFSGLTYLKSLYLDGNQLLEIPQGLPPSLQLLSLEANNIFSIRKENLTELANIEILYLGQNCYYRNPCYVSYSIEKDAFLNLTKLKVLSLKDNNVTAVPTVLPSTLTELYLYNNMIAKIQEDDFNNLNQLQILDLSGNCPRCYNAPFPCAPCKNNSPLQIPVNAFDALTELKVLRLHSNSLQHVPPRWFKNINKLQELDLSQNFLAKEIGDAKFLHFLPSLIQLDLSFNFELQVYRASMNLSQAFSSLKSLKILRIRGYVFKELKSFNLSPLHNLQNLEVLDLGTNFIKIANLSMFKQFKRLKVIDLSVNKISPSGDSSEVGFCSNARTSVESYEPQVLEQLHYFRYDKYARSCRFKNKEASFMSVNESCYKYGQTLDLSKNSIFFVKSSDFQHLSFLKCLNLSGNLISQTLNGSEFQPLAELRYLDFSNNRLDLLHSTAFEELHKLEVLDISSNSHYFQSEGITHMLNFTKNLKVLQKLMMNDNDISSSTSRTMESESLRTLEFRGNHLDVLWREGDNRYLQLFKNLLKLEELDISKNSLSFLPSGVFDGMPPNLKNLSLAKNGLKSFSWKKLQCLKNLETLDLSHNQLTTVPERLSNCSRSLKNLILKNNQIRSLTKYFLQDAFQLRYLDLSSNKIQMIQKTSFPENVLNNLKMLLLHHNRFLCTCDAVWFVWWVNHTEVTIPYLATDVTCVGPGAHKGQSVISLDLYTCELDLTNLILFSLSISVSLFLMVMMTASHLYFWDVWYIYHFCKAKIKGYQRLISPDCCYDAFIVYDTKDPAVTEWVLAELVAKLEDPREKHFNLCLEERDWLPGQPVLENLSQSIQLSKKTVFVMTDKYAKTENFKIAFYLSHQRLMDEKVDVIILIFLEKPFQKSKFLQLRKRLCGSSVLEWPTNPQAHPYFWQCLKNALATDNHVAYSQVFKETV
Nature of the assay: huPBMC TLR7 Antagonist IFNα Assay. The assay is classed as cell-based. Particulars: human PBMCs stimulated with ssRNA40 10 μg/mL (DOTAP), 14-16 hrs; IFNα2b AlphaLISA read-out. As to the method:
Compounds were generally serially diluted (1/3) in DMSO and plated on sterile 384 well tissue culture plates and stored until ready for use. Each ten-point dilution was typically plated in triplicate in parallel rows.
Fresh blood was collected from normal human donors underwritten informed consent in heparinized syringes on the morning of the assay. The blood was diluted in RPMI-1640 medium and the white blood cells were separated from red blood cells by centrifugation (800 g 15′ 0 acceleration, 0 brake) on a Ficoll cushion. Peripheral blood mononuclear cells (PBMCs) were separated from platelets by a series of low-speed centrifugations (1000RPM 10′) in PBS+5% HI—FBS and 1 mM EDTA. Purified PBMCs were re-suspended in assay medium (RPMI-1640 w Glutamax (Invitrogen) supplemented with 5% HI—FBS, 10 mM HEPES, 50 uM β-mercaptoethanol, and 100 mG/L penicillin/streptomycin cocktail). Viable PBMCs were counted on a hemacytometer and kept on ice until ready for plating.
A 4× concentration (4 ug/ml or 40 ug/ml for TLR8 or TLR7 assays, respectively) of the TLR7/8 agonist ssRNA40 (IDT) was complexed with 10% DOTAP (Roche) in assay medium for 30 min prior to addition to the PBMC suspension (5 million cells/ml). After addition, the final concentration of ssRNA40 in the TLR7/8 stimulated PBMC suspension was 1 μg/ml for TLR8 assay, and 10 μg/mL for the TLR7 assay. The final DOTAP concentration was 2.5%. Diluted PBMCs (5 million cells/ml) were treated with 4×TLR9 agonist ODN2216 (Invivogen). Final concentration of ODN2216 in TLR9 stimulated PBMC suspension was 0.3 μM.
Agonist stimulated PBMCs were plated on the compound treated 384 well plates at 150,000 cells/well. Un-stimulated PBMCs were plated as controls on each plate. Plating volume was 40 μL per well. DMSO concentration in each well was 0.25%.
A separate plate, without compounds, with titrations of ssRNA40 and ODN2216 was included in every assay to measure agonist response of each donor's PBMC prep. Assay plates were placed in a tissue culture incubator (37° C., 5% CO2) for 14-16 hrs. After this incubation, the plates were centrifuged and stored at −20° C. until they were assayed.
IL-6 TR-FRET Assay for TLR8 activity: • 1) Cisbio Human IL-6 kit, 20,000 tests (62TNFPEC), and GNF High-Base TC 384 well plates (cat #789163G) were used; • 2) the Anti-TIL-6 Cryptate conjugate and the Anti-IL-6 XL665 conjugate were diluted 1:20 in Reconstitution Buffer; • 3) a 1:1 mixture of 3 μl/well Anti-IL-6 Cryptate conjugate and 3 μl/well Anti-IL-6 XL665 conjugate was prepared; • 4) 6 μl/well HTRF dilution mastermix was added to 6 μl of transferred supernatant samples in proxiplates; • 5) The plates were incubated for 3 hrs at rt in the dark; and • 6) the levels of IL-6 production was measured using an Envision plate reader (665 nm (emmission)/590 nm (excitation)) with HTRF settings and ratiometric read-out: (XL665 emission/Eu Cryptate emission)×10,000. IFNα2b AlphaLISA Assay for TLR7 or TLR9 activity After thawing the assay plates, 6 μL of supernatant samples were transferred to a low-volume AlphaPlate 384SW (Perkin-Elmer). The concentration of IFNα in supernatants was measured using the IFNα2b AlphaLISA Assay (Perkin-Elmer: AL297F). 3 μL of IFNα acceptor beads/biotinylated antibody solution was added first, using laboratory automation. After an hour incubation, […] of streptavidin […] bead solution was added. The plates containing this mixture were incubated in the dark for an hour and read on an appropriate plate reader at reading parameters set by the manufacturer. (Envision, EnSpire: Perkin-Elmer).
A general note: Bead proximity is the source of the signal in Alpha formats.
Take `Cc1nc(N2CCc3c(c(C)nn3CC34CCC(NC(=O)CCN(C)C)(CC3)CC4)C2)c2c(n1)c(C)nn2C` [compound 24, 3-(dimethyalmino)-N-(4-((3-methyl-5-(1,3,5-trimethyl-1H-pyrazolo[4,3-d]pyrimidin-7-yl)-4,5,6,7-tetrahydro-1H-pyrazolo[4,3-c]pyridin-1-yl)methyl)bicyclo[2.2.2]octan-1-yl)propanamide]: the negative logarithm of the IC50 (pIC50) was 6.70.
The figure for `Cc1nc(N2CCc3c(c(C)nn3CC34CCC(N5CCCCC5)(CC3)CC4)C2)c2c(n1)c(C)nn2C` [compound 38, 1,3,5-trimethyl-7-(3-methyl-1-((4-(piperidin-1-yl)bicyclo[2.2.2]octan-1-yl)methyl)-6,7-dihydro-1H-pyrazolo[4,3-c]pyridin-5(4H)-yl)-1H-pyrazolo[4,3-d]pyrimidine] is 7.38; for `Cn1ncc2c(N3CCc4nn(CC56CCC(N)(CC5)CC6)cc4C3)nc(N)nc21` [compound 12, 4-(2-((4-aminobicyclo[2.2.2]octan-1-yl)methyl)-6,7-dihydro-2H-pyrazolo[4,3-c]pyridin-5(4H)-yl)-1-methyl-1H-pyrazolo[3,4-d]pyrimidin-6-amine] it is 6.08.
Next, `Cc1cc(N2CCc3c(c(C)nn3CC34CCC(N)(CC3)C4)C2)c2cnn(C)c2n1` [compound 44, 4-((5-(1,6-dimethyl-1H-pyrazolo[3,4-b]pyridin-4-yl)-3-methyl-4,5,6,7-tetrahydro-1H-pyrazolo[4,3-c]pyridin-1-yl)methyl)bicyclo[2.2.1]heptan-1-amine]: 7.42; `Cc1cc(N2CCc3c(c(C)nn3CC34CCC(NC(=O)CN5CCCC5)(CC3)CC4)C2)c2cnn(C)c2n1` [compound 100, N-(4-((5-(1,6-dimethyl-1H-pyrazolo[3,4-b]pyridin-4-yl)-3-methyl-4,5,6,7-tetrahydro-1H-pyrazolo[4,3-c]pyridin-1-yl)methyl)bicyclo[2.2.2]octan-1-yl)-2-(pyrrolidin-1-yl)acetamide]: 8.30; `Cc1cc(N2CCc3c(c(C)nn3CC34CCC(N)(CC3)CC4)C2)c2ccncc2n1` [Compound No. 3, 4-((3-methyl-5-(2-methyl-1,7-naphthyridin-4-yl)-4,5,6,7-tetrahydro-1H-pyrazolo[4,3-c]pyridin-1-yl)methyl)bicyclo[2.2.2]octan-1-amine]: 7.27.
With `Cc1cc(N2CCc3c(c(C)nn3CC34CCC(N5CCO[C@H](C)C5)(CC3)CC4)C2)c2cnn(C)c2n1` [compound 107, (R)-4-(4-((5-(1,6-dimethyl-1H-pyrazolo[3,4-b]pyridin-4-yl)-3-methyl-4,5,6,7-tetrahydro-1H-pyrazolo[4,3-c]pyridin-1-yl)methyl)bicyclo[2.2.2]octan-1-yl)-2-methylmorpholine], the pIC50 was 7.96.
The figure for `Cc1cc(N2CCc3c(c(C)nn3CC34CCC(N5CCO[C@@H](C)C5)(CC3)CC4)C2)c2cnn(C)c2n1` [compound 109, (S)-4-(4-((5-(1,6-dimethyl-1H-pyrazolo[3,4-b]pyridin-4-yl)-3-methyl-4,5,6,7-tetrahydro-1H-pyrazolo[4,3-c]pyridin-1-yl)methyl)bicyclo[2.2.2]octan-1-yl)-2-methylmorpholine] is 7.92; for `Cc1cc(N2CCc3c(c(C)nn3CC34CCC(N5CC6(COC6)C5)(CC3)CC4)C2)c2cnn(C)c2n1` [compound 116, 6-(4-((5-(1,6-dimethyl-1H-pyrazolo[3,4-b]pyridin-4-yl)-3-methyl-4,5,6,7-tetrahydro-1H-pyrazolo[4,3-c]pyridin-1-yl)methyl)bicyclo[2.2.2]octan-1-yl)-2-oxa-6-azaspiro[3.3]heptane] it is 8.05; for `Cc1nn(CC23CCC(N)(CC2)CC3)c2c1CN(c1ccnc3[nH]ncc13)CC2` [compound 41, 4-((3-methyl-5-(1H-pyrazolo[3,4-b]pyridin-4-yl)-4,5,6,7-tetrahydro-1H-pyrazolo[4,3-c]pyridin-1-yl)methyl)bicyclo[2.2.2]octan-1-amine] it is 8.22.
The figure for `[2H]C([2H])([2H])n1ncc2c(N3CCc4c(c(C)nn4CC45CCC(N)(CC4)CC5)C3)cc(C)nc21` [Compound No. 140, 4-((3-methyl-5-(6-methyl-1-(methyl-d3)-1H-pyrazolo[3,4-b]pyridin-4-yl)-4,5,6,7-tetrahydro-1H-pyrazolo[4,3-c]pyridin-1-yl)methyl)bicyclo[2.2.2]octan-1-amine] is 7.57; for `Cc1cc(N2CCc3c(c(C)nn3CC34CCC(NCC(=O)N5CCCCC5)(CC3)CC4)C2)c2cnn(C)c2n1` [compound 99, 2-((4-((5-(1,6-dimethyl-1H-pyrazolo[3,4-b]pyridin-4-yl)-3-methyl-4,5,6,7-tetrahydro-1H-pyrazolo[4,3-c]pyridin-1-yl)methyl)bicyclo[2.2.2]octan-1-yl)amino)-1-(piperidin-1-yl)ethanone] it is 7.40; for `Cc1nc(N2CCc3c(c(C)nn3CC34CCC(N5CCCCC5)(CC3)CC4)C2)c2cnn(C)c2n1` [compound 39, 1,6-dimethyl-4-(3-methyl-1-((4-(piperidin-1-yl)bicyclo[2.2.2]octan-1-yl)methyl)-6,7-dihydro-1H-pyrazolo[4,3-c]pyridin-5(4H)-yl)-1H-pyrazolo[3,4-c]pyrimidine] it is 7.22.
The figure for `Cc1nc(N2CCc3c(c(C)nn3CC34CCC(N5CCCC5)(CC3)CC4)C2)c2cnn(C)c2n1` [compound 16, 1,6-dimethyl-4-(3-methyl-1-((4-(pyrrolidin-1-yl)bicyclo[2.2.2]octan-1-yl)methyl)-6,7-dihydro-1H-pyrazolo[4,3-c]pyridin-5(4H)-yl)-1H-pyrazolo[3,4-d]pyrimidine] is 7.60; for `Cc1cc(N2CCc3c(c(C)nn3CC34CCC(NC(=O)CO)(CC3)CC4)C2)c2cnn(C)c2n1` [Compound No. 135, N-(4-((5-(1,6-dimethyl-1H-pyrazolo[3,4-b]pyridin-4-yl)-3-methyl-4,5,6,7-tetrahydro-1H-pyrazolo[4,3-c]pyridin-1-yl)methyl)bicyclo[2.2.2]octan-1-yl)-2-hydroxyacetamide] it is 8.00.
